The target of test [1] is BceAB transporter from S. pneumoniae (Streptococcus pneumoniae, UniProt A0A0H2ZN40). The format is biochemical. The note with it: 5 mM nucleotide, 300 μg/mL bacitracin. The method, then: E. coli BL21(DE3) cells were transformed with pRSF-Duet1-BceAB WT, K48A or E170Q and selected on LB-agar plates containing 50 μg/mL kanamycin. One colony was inoculated into in 2L-baffled flasks containing 500 mL of 2YT medium and 50 μg/mL kanamycin and grown at 37°C, 180 rpm to OD600 of 0.6. Protein expression was induced by adding IPTG to a final concentration of 1 mM. Induction was performed overnight at 25°C and cells were harvested by centrifugation at 7,000 g for 20 min.
Cells were resuspended in buffer A (HEPES-NaOH 100 mM pH 8.0, NaCl 150 mM) and lysed by passaging them three times through a cell disruptor (Microfluidizer, Microfluidics) at 18,000 psi (or 1,24 x 108 Pa). Undisrupted cells and cell debris were removed by centrifugation at 15,000 x g for 30 min at 4°C. Membranes were harvested from the supernatant after ultracentrifugation at 150,000 x g for 1 h at 4°C. Membranes were resuspended in 20 mL of buffer A and centrifuged once again at 150,000 x g for 1 h at 4°C. Membrane pellets were homogenized in buffer HEPES-NaOH 100 mM pH 8.0, NaCl 150 mM and 20% glycerol, and stored at -80°C.
For the purification of BceAB, membranes from 0,5 L cell culture were diluted in buffer B (100 mM d’HEPES-NaOH pH 8, 150 mM NaCl, 10% glycerol) to a protein concentration of 4 mg/mL and solubilized with 0.5% (w/v) LMNG for 2 h at 4°C. After ultracentrifugation at 150,000 x g for 1 h at 4°C, the supernatant containing solubilized proteins was diluted four times using buffer B and loaded on Ni^2+-charged immobilized metal-ion affinity chromatography (IMAC) column (1 mL HisTrap HP, Cytiva). The column was washed with 10 mL of buffer B containing 0.005% (w/v) LMNG and 20 mM of imidazole. The column was further washed with the same buffer until OD280nm reached basal levels. BceAB was eluted by buffer B containing 0.005% (w/v) LMNG and an imidazole gradient from 20 to 500 mM of imidazole. Purified BceAB was dialyzed into buffer B containing 0.005% (w/v) LMNG and stored at -80°C.
The proteoliposomes were prepared as previously described for the transporter BmrA [50]. Proteoliposomes were loaded on sucrose gradient with different layers of 400 μL of 50 mM HEPES-KOH pH 8.0 buffer containing 30, 20, 15 or 10% of sucrose. One mL of proteoliposomes was loaded on the top of the sucrose gradient and ultra-centrifuged at 200,000 x g for 12 h at 4°C. Proteoliposomes were typically collected from the 15% layer and were loaded on SDS-PAGE to analyze and quantify the presence of BceAB by using a standard-curve of purified BceAB and ImageJ.
These activities were performed as previously described.

Test [2] has as its system S. pneumoniae R6 mutant strains (ΔbceAB, Δtcs01, ΔbceAB/tcs01). Kind of test: Growth of wild-type and mutant strains in microplates with bacitracin. The format is cell-based, Streptococcus pneumoniae. The note with it: Todd-Hewitt broth, various bacitracin concentrations, 4 biological replicates (Fig 1). The protocol: The MIC of various antimicrobial peptides for R6, R800 and D39 strains was determined by classical 2-fold broth dilution method. Cells were first grown in Todd-Hewitt medium at 37°C without agitation and in anaerobic conditions until the absorbance reaches approximatively 0.3. Complementation strains were grown with 0.5 μM ComS inducer until the appropriate OD. Cells were then diluted at final OD600nm = 0.002 in 96-well plates containing 300 μL of Todd-Hewitt medium (and 2 μM ComS inducer for the complementation strains) with serial dilutions of antimicrobial peptides. Pneumococcal growth was monitored by a microplate reader (TECAN) at 37°C without agitation. The absorbance was followed at 600 nm every 15 min for 15 h.

Each structure is given as a SMILES string. Where a SMILES comes first, the peptide text is derived from it. Bridges are numbered along the chain shown (N, C = ends). [ ]: non-standard residue; d: D form. The star is where a group is joined. Ileψ(thiazoline)Cys = CC[C@H](C)[C@H](N)C1=N[C@H](C(=O)*)CS1; dOrn = NCCC[C@@H](N)C(=O)O

For the compound `CC[C@H](C)[C@H](N)C1=N[C@H](C(=O)N[C@@H](CC(C)C)C(=O)N[C@H](CCC(=O)O)C(=O)N[C@H](C(=O)N[C@H]2CCCCNC(=O)[C@H](CC(N)=O)NC(=O)[C@@H](CC(=O)O)NC(=O)[C@H](Cc3cnc[nH]3)NC(=O)[C@@H](Cc3ccccc3)NC(=O)[C@H]([C@@H](C)CC)NC(=O)[C@@H](CCCN)NC2=O)[C@@H](C)CC)CS1` [bacitracin] ({Ileψ(thiazoline)Cys}-L[dE]IK[dOrn]I[dF]H[dD]N; lactam 4-C (inferred); N-terminus assumed), in test [1] (after reconstitution in liposomes, calculated on total protein added to the reconstitution mixture), the “ATPase activity of wild-type BceAB stimulated by bacitracin” value is given as 0.6–1 μmol of ATP hydrolyzed/min/mg. Also, the “Specific ATPase activity of wild-type BceAB in the presence of bacitracin” value in test [1] (proteoliposomes further separated on sucrose gradient) is “up to 2 μmol ATP hydrolyzed/min/mg”. For the same compound, the “Growth of the mutant strains” value in test [2] was “severely impaired”.

(Values after paper PMC9020739, “Identification of a two-component regulatory system involved in antimicrobial peptide resistance in Streptococcus pneumoniae” (PLoS Pathogens, 2022).)
